Experimental data as given in patent US6699861B1, “Anti-quinazoline compounds” (Cancer Research Technology Limited, priority 1999, dated 2004).
Values joined by “and” are separate entries in the source; they are usually repeats but may differ in a detail not shown here. Equal values may be shown once. Read-outs that look alike come from different tables or passages of the source.

What was measured:
W1L2:C1 cells = assay: Growth inhibition of W1L2:C1 cells (elevated TS); format: cell-based, human; conditions: read-out: Inhibition of Cell Growth IC50, W1L2:C1 (B)
Protocol: W1L2 human lymphoblastoid, W1L2:C1 (elevated TS; O'Connor et al, Cancer Res, 52, 1137-1143 (1992)) and L1210 mouse leukaemia cells were cultured in suspension and A2780, PXN94, 41M, HX62, SKOV3 (human ovarian carcinoma), MCF-7 (human breast carcinoma), HT29 and SW480 (human colon carcinoma) cell lines were grown as monolayers as described in Jackman et al, Cancer Res, 50, 5212-5218 (1990) and Jackman et al, Br. J. Cancer, 71, 914-924 (1995).
Growth inhibition studies with suspension cells were performed as described in Jackman et al, Cancer Res, 50, 5212-5218 (1990). Activity against the adherent cell lines was assessed by MTT assay (Twentyman et al, Br. J. Cancer, 56, 279-285 (1987)) where cells were seeded in 96-well plates at 1000-3000 cells per well, incubated overnight and then exposed to the appropriate drug concentrations for 96-120 h.

W1L2:R865 cell line = assay: Growth inhibition of W1L2:R865 cells (acquired resistance to CB 30865); format: cell-based, human
Protocol: A cell line was raised with acquired resistance to CB 30865, denoted W1L2:R865, by stepwise selection over ˜9 months.
The generated W1L2:R865 cell line was routinely cultured in 0.03 μm CB 30865 under the same conditions as W1L2 cells, with cells being grown in the absence of CB 30865 for ˜2 weeks before an experiment.
The activity of compounds against W1L2:R865 cells was determined within parallel experiments by 72 h growth inhibition assay (Coulter counts). CB 30865 was included in every experiment as an internal control.

[1] = system: W1L2 human lymphoblastoid cells; assay: Growth inhibition of W1L2 cells; format: cell-based; conditions: W1L2 suspension cells, read-out: Inhibition of Cell Growth IC50, W1L2 (B)
W1L2 cells = assay: Growth inhibition of W1L2 in presence of folate metabolites (dThd/HX); format: cell-based, human; conditions: in the presence of 10 μM thymidine (dThd) and 50 μM hypoxantine (HX), read-out: Inhibition of Cell Growth IC50, W1L2 + dThd/HX (C)
Protocol: Growth inhibition assays as described above were performed in W1L2 cells where compounds were incubated in the presence of 10 μM thymidine (dThd) and 50 μM hypoxantine (HX) (purchased from Sigma Chemical Co.).

[2] = molecular target: mouse thymidylate synthase (TS) (Mus musculus, UniProt P07607); assay: Inhibition of L1210 thymidylate synthase (TS)
Sequence of mouse thymidylate synthase (TS) (P07607 whole entry): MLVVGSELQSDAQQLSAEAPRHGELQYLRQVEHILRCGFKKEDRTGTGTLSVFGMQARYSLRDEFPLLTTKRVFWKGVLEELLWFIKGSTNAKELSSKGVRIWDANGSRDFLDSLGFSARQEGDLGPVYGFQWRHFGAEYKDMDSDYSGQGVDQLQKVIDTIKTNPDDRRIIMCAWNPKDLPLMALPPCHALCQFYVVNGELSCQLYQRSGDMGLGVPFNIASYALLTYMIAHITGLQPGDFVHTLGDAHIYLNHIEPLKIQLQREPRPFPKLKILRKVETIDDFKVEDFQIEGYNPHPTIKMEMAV

[3] = Homo sapiens, 72 h, read-out: Inhibition of Cell Growth IC50, W1L2:R865 (D), 72 h growth inhibition assay (Coulter counts)
[4] = Homo sapiens, Lymphoblastoid cell
[5] = 72 h growth inhibition assay (Coulter counts), read-out: Inhibition of Cell Growth IC50, W1L2:R865 (D)
[6] = read-out: Inhibition of Cell Growth IC50, W1L2:R865 (D), 72 h growth inhibition assay (Coulter counts)
[7] = Homo sapiens, 72 h growth inhibition assay (Coulter counts), read-out: Inhibition of Cell Growth IC50, W1L2:R865 (D)

Compound C#CCN(Cc1cc2c(=O)n(CC(=O)OC)c(CN3CCCCC3)nc2cc1Cl)c1ccc(C(=O)NCc2cccnc2)cc1 [CB300931, 4-[N-[7-Chloro-3-methoxycarbonylmethyl-4-oxo-2-piperidin-1-ylmethyl-3,4-dihydroquinazolin-6-ylmethyl]-N-(prop-2-ynyl)amino]-N-(3-pyridylmethyl)benzamide] has an IC50 (W1L2:C1 cells; Homo sapiens) of 9.6 nM, a melting point of 214 to 216 °C and an IC50 (W1L2:R865 cell line; [3]) of 23000 nM. The IC50 [1, 4] was 11 nM.

In the case of C#CCN(Cc1cc2c(=O)n(C)c(CN3CCN(C)CC3)nc2cc1Cl)c1ccc(C(=O)NCc2cccnc2)cc1 [CB300921, 4-[N-[7-Chloro-3-methyl-2-(4-methyl-piperazin-1-yl)methyl-4-oxo-3,4-dihydroquinazolin-6-ylmethyl]-N-(prop-2-ynyl)amino]-N-(3-pyridylmethyl)benzamide], the IC50 (W1L2:C1 cells) is reported as 0.62 nM and 0.54 nM, the IC50 (W1L2:R865 cell line; [3]) is reported as over 10000 nM and the IC50 [1, 4] is reported as 0.65 ± 0.15 nM.

In the case of C#CCN(Cc1cc2c(=O)n(C)c(CN3CCCCC3)nc2cc1Cl)c1ccc(C(=O)NCCCn2cncn2)cc1 [CB300942], the IC50 (W1L2:C1 cells) is reported as over 500 nM, the IC50 (W1L2:R865 cell line; [5]) is reported as 20000 nM and the IC50 [1] is reported as over 500 nM.

Compound C#CCN(Cc1cc2c(=O)n(C)c(CN3CCN(CCO)CC3)nc2cc1Cl)c1ccc(C(=O)NCc2cccnc2)cc1 [CB300930, 4-[N-[7-Chloro-3-methyl-2-(4-(2-hydroxyethyl)-piperazin-1-yl)methyl-4-oxo-3,4-dihydroquinazolin-6-ylmethyl]-N-(prop-2-ynyl)amino]-N-(3-pyridylmethyl)benzamide] has a melting point of 115 to 117 °C, an IC50 (W1L2:R865 cell line; [3]) of 22000 nM and an IC50 (W1L2:R865 cell line; [6]) of 19000 nM.

With C#CCN(Cc1cc2c(=O)n(C)c(CN3CCN(c4ccccc4)CC3)nc2cc1Cl)c1ccc(C(=O)NCc2cccnc2)cc1 [CB300934, 4-[N-[7-Chloro-3-methyl-4-oxo-2-(4-phenylpiperazin-1-yl)methyl-3,4-dihydroquinazolin-6-ylmethyl]-N-(prop-2-ynyl)amino]-N-(3-pyridylmethyl)benzamide] the IC50 (W1L2:C1 cells; Homo sapiens) was 5.4 nM, the melting point was 214 to 216 °C and the IC50 (W1L2:R865 cell line; [3]) was 940 nM. For the same compound, the IC50 [1, 4] was 7.2 nM.

In the case of C#CCN(Cc1cc2c(=O)n(C)c(CN3CCC[C@H]3C(=O)OC)nc2cc1Cl)c1ccc(C(=O)NCc2cccnc2)cc1 [CB300928, 4-[N-[7-Chloro-3-methyl-2-(methyl-L-prolin-1-yl)methyl-4-oxo-3,4-dihydroquinazolin-6-ylmethyl]-N-(prop-2-ynyl)amino]-N-(3-pyridylmethyl)benzamide], the IC50 (W1L2 cells) is reported as 14 nM and 7.6 nM and the IC50 (W1L2:R865 cell line; [5]) is reported as 24000 nM and 19000 nM.

C#CCN(Cc1cc2c(=O)n(CCN(C)C)c(CN3CCCCC3)nc2cc1Cl)c1ccc(C(=O)NCc2cccnc2)cc1 [CB300933, 4-[N-[7-Chloro-3-(2-dimethylaminoethyl)-4-oxo-2-piperidin-1-ylmethyl-3,4-dihydroquinazolin-6-ylmethyl]-N-(prop-2-ynyl)amino]-N-(3-pyridylmethyl)benzamide] showed an IC50 (W1L2:C1 cells; Homo sapiens) of 2.8 nM, a melting point of 90 to 93 °C and an IC50 (W1L2:R865 cell line; [3]) of 7200 nM. It also gave an IC50 [1, 4] of 2.9 nM.

C#CCN(Cc1cc2c(=O)n(C)c(CN3CCN(C)CC3)nc2cc1Cl)c1ccc(C(=O)NCCCn2ccnc2)cc1 [CB300929, 4-[N-[7-Chloro-3-methyl-2-(4-methyl-piperazin-1-yl)methyl-4-oxo-3,4-dihydroquinazolin-6-ylmethyl]-N-(prop-2-ynyl)amino]-N-[3-(1H-imidazol-1-yl)propyl)benzamide] showed an IC50 (W1L2:C1 cells; Homo sapiens) of 2.3 nM, an IC50 (W1L2:C1 cells) of 2.2 nM and a melting point of over 115 °C. It also gave an IC50 (W1L2:R865 cell line; [3]) of 18000 nM, an IC50 (W1L2:R865 cell line; [6]) of 14000 nM and an IC50 [1, 4] of 2.1 nM. The IC50 [1] was 2.2 nM.

With CN(c1ccc(C(=O)NCc2cccnc2)cc1)C1CCc2cc3nc(CN4CCCCC4)n(C)c(=O)c3cc21 (centres unmarked) [CB300943] the IC50 (W1L2:C1 cells; Homo sapiens) was 26 nM, the IC50 (W1L2:R865 cell line; [7]) was over 500 nM and the IC50 [1, 4] was 28 nM.

C#CCN(c1ccc(C(=O)NCc2cccnc2)cc1)C1CCc2cc3cc(C)n(C)c(=O)c3cc21 (centres unmarked) [CB300847, reference compound] gave an IC50 (W1L2:C1 cells; Homo sapiens) of 2.7 nM, an IC50 (W1L2:R865 cell line; [7]) of 2500 nM and an IC50 [1, 4] of 6.5 ± 1.7 nM.

C#CCN(Cc1cc2c(=O)n(C)c(CN3CCC(O)CC3)nc2cc1Cl)c1ccc(C(=O)NCc2cccnc2)cc1 [CB300939, 4-[N-[7-Chloro3-methyl-2-(4-hydroxypiperidin-1-yl)methyl-4-oxo-3,4-dihydroquinazolin-6ylmethyl]-N-(prop-2-ynyl)amino]-N-(3-pyridylmethyl)benzamide] gave an IC50 (W1L2:C1 cells; Homo sapiens) of 0.7 nM, an IC50 (W1L2:R865 cell line; [3]) of 18000 nM and an IC50 [1, 4] of 0.72 nM.

Work on C#CCN(Cc1cc2c(=O)n(CC(=O)N(CC)CC)c(CN3CCCCC3)nc2cc1Cl)c1ccc(C(=O)NCc2cccnc2)cc1 [CB300941, 4-[N-[7-Chloro-3-diethylcarbamoylmethyl-4-oxo-2-(piperidin-1-yl)methyl-3,4-dihydroquinazolin-6-ylmethyl]-N-(prop-2-ynyl)amino]-N-(3-pyridylmethyl)benzamide] yielded an IC50 (W1L2:C1 cells; Homo sapiens) of 8.4 nM, a melting point of over 105 °C and an IC50 (W1L2:R865 cell line; [3]) of 19000 nM. For the same compound, the IC50 [1, 4] was 9.4 nM.

In the case of C#CCN(Cc1cc2c(=O)n(CC(=O)N3CCCCC3)c(CN3CCCCC3)nc2cc1Cl)c1ccc(C(=O)NCc2cccnc2)cc1 [CB300938, 4-[N-[7-Chloro-4-oxo-2-(piperidin-1-yl)methyl-3-piperidinocarbonylmethyl-3,4-dihydroquinazolin-6-ylmethyl]-N-(prop-2-ynyl)amino]-N-(3-pyridylmethyl)benzamide], the IC50 (W1L2:C1 cells; Homo sapiens) is reported as 7.4 nM, the melting point is reported as 128 to 130 °C and the IC50 (W1L2:R865 cell line; [3]) is reported as over 50000 nM. It also gave an IC50 [1, 4] of 8.4 nM.

For C#CCN(Cc1cc2c(=O)n(C)c(CN3CCN(CC)CC3)nc2cc1Cl)c1ccc(C(=O)NCc2cccnc2)cc1 [CB300927, 4-[N-[7-Chloro-3-methyl-2-(4-ethyl-piperazin-1-yl)methyl-4-oxo-3,4-dihydroquinazolin-6-ylmethyl]-N-(prop-2-ynyl)amino]-N-(3-yridylmethyl)benzamide], the IC50 (W1L2 cells) was 0.78 nM and 0.76 nM, the IC50 (W1L2:R865 cell line; [5]) was 22000 nM and 20000 nM and the IC50 [1] was 0.78 nM and 0.8 nM.

Compound C#CCN(Cc1cc2c(=O)n(C)c(CN3CCOCC3)nc2cc1Cl)c1ccc(C(=O)NCc2cccnc2)cc1 [CB300925, 4-[N-[7-Chloro-3-methyl-2-morpholinomethyl-4-oxo-3,4-dihydroquinazolin-6-ylmethyl]-N-(prop-2-ynyl)amino]-N-(3-pyridylmethyl)benzamide] has a melting point of over 145 °C, an IC50 (W1L2:R865 cell line; [3]) of 19000 nM and an IC50 [1, 4] of 2 ± 0.36 nM.

Work on C#CCN(Cc1cc2c(=O)n(C)c(CN3CCCC3)nc2cc1Cl)c1ccc(C(=O)NCc2cccnc2)cc1 [CB300926, 4-[N-[7-Chloro-3-methyl-2-pyrrolidinomethyl-4-oxo-3,4-dihydroquinazolin-6-ylmethyl]-N-(prop-2-ynyl)amino]-N-(3-pyridylmethyl)benzamide] yielded an IC50 (W1L2 cells; Homo sapiens) of 0.76 nM, an IC50 (W1L2:R865 cell line; [3]) of 24000 nM and an IC50 [1, 4] of 0.7 nM. The IC50 [1] was 0.74 nM.

With C#CCN(Cc1cc2c(=O)n(C)c(CN(CC)CC)nc2cc1Cl)c1ccc(C(=O)NCc2cccnc2)cc1 [CB300922, 4-[N-[2-Diethylaminomethyl-7-chloro-3-methyl-4-oxo-3,4-dihydroquinazolin-6-ylmethyl]-N-(prop-2-ynyl)amino]-N-(3-pyridylmethyl)benzamide] the IC50 (W1L2 cells; Homo sapiens) was 0.73 ± 0.05 nM, the IC50 (W1L2:C1 cells; Homo sapiens) was 0.42 nM and the “Inhibition of L1210 TS (A) IRP* (inverse relative potency)” value [2] was over 2500. It also gave a melting point of 180 to 182 °C, an IC50 (W1L2:R865 cell line; [3]) of over 50000 nM and an IC50 [1, 4] of 0.71 ± 0.0076 nM.

For C#CCN(Cc1cc2c(=O)n(C)c(CN3CCCCC3)nc2cc1Cl)c1ccc(C(=O)NCc2cccnc2)cc1 [CB300923, 4-[N-[7-Chloro-3-methyl-4-oxo-2-piperidinomethyl-3,4-dihydroquinazolin-6-ylmethyl]-N-(prop-2-ynyl)amino]-N-(3-pyridylmethyl)benzamide], the IC50 (W1L2 cells; Homo sapiens) was 0.78 nM, the “Inhibition of L1210 TS (A) IRP* (inverse relative potency)” value [2] was over 4211 and the melting point was 148 to 150 °C. For the same compound, the IC50 (W1L2:R865 cell line; [3]) was 14000 nM and the IC50 [1, 4] was 0.8 nM.
